# Reference: patent US6046228A, “Anti-viral pharmaceutical compositions containing saturated 1,2-dithiaheterocyclic compounds and uses thereof” (priority 1999, dated 2000)
# pEC50, pIC50: −log10 of the molar value. Where “and” joins values, the source holds several entries; their conditions need not be identical. Equal entries are not always repeated. Where two headings read alike, the source gives them in different places.
# Experiments:
# HIV-1RF = test: XTT cytoprotection (cytopathicity) anti-HIV assay, CEM-SS cells; type: cell-based
# Description: (§1) Initial anti-HIV screening was performed with CEM-SS cells and HIV-1RFusing the XTT cytoprotection assay as previously described (Weislow et al., J. National Cancer Inst. 81: 577-586, (1989)). HIV-1 isolates included common laboratory stains (RF, IIIB and MN), as well as a panel of HIV-1 clinical isolates (Cushman et al., J. Med. Chem. 37: 3040-3050, (1994)). The pyridone-resistant HIV-1A17 isolate (Nunberg et al., J. Virol., 65: 4887-4892 (1991)) was obtained from Emilio Emini at Merck Sharpe and Dohme Laboratories. Phytohemagglutinin-stimulated human peripheral blood lymphocytes (PBLs) and fresh monocyte-macrophage (Mono/MF) cultures were prepared and utilized in antiviral assays as previously described (Rice et al., Proc. Nat'l. Academy Science, USA 90: 9721-9724, (1993)); (Cushman et al., J. Med. Chem. 37: 3040-3050, (1994)). EC50 values for these cultures indicate the drug concentration that provided a 50% reduction in viral p24 production. […] The compounds can be synthesized according to the teachings of Singh et al., Sulfur Letters 8: 107-114, (1988). […] MT-2, MT-4, U1, HeLa-CD4-LTR-β-gal and 174xCEM cells were obtained from the AIDS Research and Reference Program (National Institute of Allergy and Infectious Disease, National Institutes of Health, Bethesda, Md. USA), as were the HIV-2MS and the AZT-resistant HIV-1G910-6 isolates.
# (§2) Racemate and enantiomers of the cis-1,1-dioxo[1,2]dithiane-4,5-diol were synthesized and evaluated for antiviral activity in the XTT assay as described hereinabove.
# CEM-SS cells = test: XTT assay, cytotoxicity (IC50), CEM-SS cells; type: cell-based
# Description: as §1, §2
# [1] = system: attachment of HIV-1 to fresh human PBLs; test: virus attachment assay, HIV-1RF to PBLs (p24-based); type: cell-based; details: control; 30 min
# Description: Binding of HIV-1RF to PBLs was measured by a p24-based assay (Rice, et al., Proc. Nat'l. Academy of Science USA 90: 9721-9724, (1993)). Briefly, 5×10^5 PBLs were incubated with a concentrated stock of virus for 30 min. at 37° C. in the absence or presence of various concentrations of 624151, the unbound virus was washed away, and the cell-associated virus was solubilized in 1% Triton X-100, 1% BSA and analyzed by the p24 antigen capture assay as previously described. The binding of gp120to CD4 was analyzed using an antigen capture ELISA. All steps of the assay were carried out according to the manufacturer's protocols.
# ^.dagger. Attachment of HIV1 to fresh human PBLs, binding of gp120 to […]
# HIV-1 p7NC protein = biological target: T1, HIV-1 p7NC protein (Human immunodeficiency virus type 1 group M subtype B, UniProt P04591); test: Trp37 zinc finger fluorescence assay (zinc ejection from p7NC); type: biochemical; details: 25 μM compound, listed as 693194
# T1 construct: recombinant HIV-1 p7NC protein
# Description: Fluorescence measurements of the Trp^37 residue in the C-terminal zinc finger of the recombinant HIV-1 p7NC protein were performed as previously described (Rice et al., Science 270:1194, 1995). The p7NC protein was prepared at 20 μg/ml in 10 mM sodium phosphate buffer (pH 7.0), treated with 25 μM of each compound, then after indicated time intervals the samples were diluted 1/10 in 10 mM sodium phosphate buffer (pH 7.0) and the fluorescence intensity measured. The excitation and emission wavelengths utilized with the Shimadzu RF5000 spectrofluorimeter were 280 nm and 351 nm, respectively. In an alternate assay, the zinc-selective fluorescent probe N-(6-methoxy-8quinolyl-)-p-toluenesulfonamide (TSQ, Molecular Probes, Eugene, Oreg.) originally described by Fredrickson (J. Neurosci. Meth. 20:91, 1987) was utilized to measure zinc released from the p7NC protein in vitro. Briefly, 2 μM recombinant HIV-1 p7NC protein in 10 mM sodium phosphate buffer, pH 7.0, 10% glycerol was treated with 10 μM 624151 ([…] total volume in 96-well plates), and the time-dependent increase in fluorescence was measured on a Labsystems Fluoroskan II (360 nm excitation filter and 460 nm emission filter) over a period of 2 hours. Induction of alterations of p7NC proteins within intact virions involved treatment of HIV-1MN for 1 hour at 37° C. with 25 μM test compound. Samples were centrifuged 1 hour at 4° C. under 18,000×g to pellet the virus from the drug. Virus pellets were resolved by non-reducing SDS-PAGE and analyzed by immunoblot using monospecific rabbit antisera to the purified p7NC protein.
# ^b The percent decrease in RFU was calculated based on measurement of
# the initial fluorescence of the p7NC protein before and 10 minutes after
# treatment with the 25 μM of compound at ambient temperature.
# The ability of 624151 to chemically interact with the zinc fingers of the HIV-1 p7NC protein was initially determined by a fluorescence assay (Rice et al., Science 270:1194-1197, (1995)) that measures a loss in intrinsic fluorescence of the tryptophan (Trp^37) residue in the second finger of the protein that occurs upon loss of zinc from the finger (Summers et al., Protein Sci. 1:563, 1992). […] As the 624151 modifies the zinc finger thiolates and the zinc is ejected over time, the metal is bound by the TSQ fluorochrome (FIG. 1(B)).
# Sodium Phosphate buffer, pH 7.0 in 1 ml was treated with 25 μM of
# compound. At indicated times, the mixture was diluted 1/10 and the
# relative fluorescence units (RFU) measured in a Shimadzu RF5000
# spectrofluorimeter with […] and Em = 351 mn. Following
# loss of zinc from the Cterminal zinc finger, the Trp37 residue folds away
# from the # aqueous environment and experiences a loss of fluorescence.
# HIV-1 integrase = biological target: T2, HIV-1 integrase (Human immunodeficiency virus type 1 group M subtype B, UniProt P04585); test: HIV-1 integrase activity; type: biochemical; details: Table 6
# T2 construct: the purified HIV-1 protease and integrase enzymes
Compound,EC50 Mean (HIV-1RF; Table 5),"IC50 Duplicates (CEM-SS cells; Table 5, cytotoxicity)","IC50 Mean (CEM-SS cells; Table 5, cytotoxicity)",virion binding ID50 [1],"pEC50 (HIV-1RF; Human immunodeficiency virus 1, CEM-SS, CEM-SS cells, HIV-1RF, read-out: XTT Assay EC50)","pEC50 (HIV-1RF; Human immunodeficiency virus 1, CEM-SS, Table 5, read-out: EC50 Mean)","pEC50 (HIV-1RF; Table 5, listed as 693194, read-out: EC50 Duplicates)","pIC50 (CEM-SS cells; Homo sapiens, CEM-SS, Table 5, cytotoxicity, read-out: IC50 Duplicates)","pIC50 (CEM-SS cells; Homo sapiens, CEM-SS, Table 5, cytotoxicity, read-out: IC50 Mean)","pIC50 (CEM-SS cells; Homo sapiens, CEM-SS, cytotoxicity, CEM-SS cells, read-out: XTT Assay IC50)","pIC50 (CEM-SS cells; Table 5, cytotoxicity, listed as 693194, read-out: IC50 Duplicates)",p7NC Trp37 Assay (RFU) (HIV-1 p7NC protein; 0 min),p7NC Trp37 Assay (RFU) (HIV-1 p7NC protein; 3 min),p7NC Trp37 Assay (RFU) (HIV-1 p7NC protein; 10 min),p7NC Trp37 Assay (RFU) (HIV-1 p7NC protein; 30 min),inhibition of HIV-1 integrase (HIV-1 integrase)
dextran sulfate [reference compound],0.76 µg/mL,> 95 µg/mL,> 95 µg/mL,1.8 µg/mL,–,–,–,–,–,–,–,–,–,–,–,–
"O=S1(=O)C[C@H](O)[C@H](O)CS1 (single isomer, unassigned) [NSC 693194, (+)-cis-4,5-Dihydroxy-1,2-dithiane 1,1-dioxide]",–,–,–,–,4.80,4.79,4.73 and 4.86,3.87,3.87,3.87,3.88,280 RFU,146 RFU,75 RFU,41 RFU,NI100
